Holding throughout (experiment): DTP human tumour cell line panel, 48 h
The subject of assay [1] is SNB-78 CNS.
Assay [2] concerns DLD-1 colon.
Assay [3] relates to HOP-18 NSCLC.
In assay [4] the test system is DMS 273 small cell lung.
The test system of assay [5] is KM20L2 colon.
Assay [6] concerns RXF-631 renal.

Here are results for 23 compounds from PubChem BioAssay (NCI).

Several values for one entry are separate records, joined by “and”; a condition that tells them apart may be missing. Identical values can stand only once.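 Method: 48-hour compound exposure of cells in 96-well plates, five concentrations, linear interpolation of endpoints. GI50 marks 50% less growth. TGI: concentration producing complete growth inhibition.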

With `O=C(Cc1ccccc1)NN1C(=O)C(Cl)C1c1ccccc1Cl` (stereo unspecified), the TGI in assay [1], in assay [2], in assay [3], in assay [4] and in assay [5] was > 100 µM in each case.
Take `Cc1cc2ncn(-c3nc4ccccc4nc3C(C#N)S(C)(=O)=O)c2cc1C` (stereo unspecified): the TGI in assay [1], in assay [2], in assay [4] and in assay [5] was > 100 µM each time.
As for `N#CCCn1[nH]c(=O)c(Cl)c(Cl)c1=O`, the TGI came to 41.9 µM in assay [1]; 27 µM in assay [2]; 30.6 µM in assay [3]; 37.1 µM in assay [6]; 29.7 µM in assay [5].
In the same order, the values of `COC(=O)C(=O)C(C(=O)OC)C(=O)C(=O)Nc1c(C)cccc1C` (stereo unspecified) are > 100 µM, > 100 µM, > 100 µM, > 100 µM and > 100 µM.
With `CC(C)/C=C1\CCC(CN(C)C)C1=O` (stereo unspecified), the TGI was found to be 23.8 µM in assay [1], 11.2 µM in assay [2], 8.72 µM in assay [3] and 28.6 µM in assay [5].
For the compound `COc1cc2c(c(OC)c1OC)-c1ccc(SC)c(=O)cc1[C@@H](NCc1ccc(F)cc1)CC2`, the total growth inhibition concentration (TGI) in assay [1] was 65.6 µM and > 100 µM; in assay [2] it was 75 µM and > 100 µM; in assay [3] it was 51.3 µM and > 100 µM; in assay [6] it was 52.4 µM; in assay [5] it was < 0.0075 µM. The GI50 in assay [3] was > 100 µM.
With `CC(C)N(C(=O)C12C3C4C1C1C2C3C41C#N)C(C)C` (stereo unspecified), the TGI in assay [1], in assay [2], in assay [3], in assay [6], in assay [4] and in assay [5] was > 100 µM each time.
As for `CN(C)CCNc1ccc2ncn3c4ccccc4c(=O)c1c23`, the TGI was found to be 19.8 µM in assay [1], 12.8 µM in assay [2], 33 µM in assay [3] and 13.6 µM in assay [5].
As to `CC(C)(C)N=CN1C=Cc2nc3ccccc3cc2C1`, the concentration for total growth inhibition (TGI) in assay [1], in assay [2], in assay [3], in assay [6], in assay [4] and in assay [5] was > 100 µM each time.
On to `CC(C)c1cccc(C(C)C)c1NC(=O)C(=O)Cc1nc2ccc([N+](=O)[O-])cc2[nH]c1=O`, for which the TGI in assay [2], in assay [3], in assay [6], in assay [4] and in assay [5] was > 100 µM each time.
Take `CCCCCCCC/C=C1\CCC(CN(C)C)C1=O` (stereo unspecified): the concentration for total growth inhibition (TGI) in assay [1] worked out at 27.2 µM; in assay [2], 4.9 µM; in assay [3], 33.8 µM; in assay [6], 17.9 µM; in assay [4], 5.12 µM; in assay [5], 19.8 µM.
On to `CCOc1ccccc1N=Nc1ccc2oc(=O)c(C(C)=O)cc2c1`, for which the TGI in assay [1], in assay [2], in assay [4] and in assay [5] was > 100 µM in each case.
As for `Nc1nncc2c1c(Br)cn2C1OC(CO)C(O)C1O` (stereo unspecified), the total growth inhibition concentration (TGI) in assay [1] is > 100 µM; in assay [2], > 53 µM; in assay [3], > 100 µM; in assay [6], > 100 µM; in assay [4], > 100 µM; in assay [5] it was > 100 µM.
Turning to `O=Cc1c[nH]c2c(=O)[nH]cnc12`, the total growth inhibition concentration (TGI) in assay [1], in assay [2] and in assay [3] was > 100 µM throughout.
In the case of `Nc1nc2c(N)cc(C(F)(F)F)cc2nc1-c1ccccc1`, the TGI in assay [1], in assay [2], in assay [3], in assay [4] and in assay [5] was > 100 µM throughout.
With `CCOC(=O)c1c2ccc(/C=C/c3ccccn3)ccc-2c(C(=O)OCC)c1N`, the TGI in assay [2], in assay [3], in assay [6], in assay [4] and in assay [5] was > 100 µM each time.
Take `COC(=O)C1CC2C=CC=CC(=O)C2(C)C1` (stereo unspecified): the total growth inhibition concentration (TGI) in assay [1] is > 100 µM; in assay [2] it was 28.9 µM; in assay [5] it was > 100 µM.
Regarding `COc1ccc(N2C(=O)c3c(c4[nH]c5ccccc5c4c4ccc(C(C)(C)C)cc34)C2=O)cc1`, the TGI in assay [1] was 60 µM; in assay [2], > 100 µM; in assay [3], > 100 µM; in assay [6], > 100 µM; in assay [4], > 100 µM; in assay [5], > 100 µM.
For the compound `CC1=C(c2nc3ccccc3s2)C(=O)OC1(C)C`, the TGI in assay [1], in assay [2], in assay [6], in assay [4] and in assay [5] was > 100 µM in each case.
With `Cc1c(O)c(=O)ccn1CCN`, the TGI in assay [1], in assay [2], in assay [3], in assay [6], in assay [4] and in assay [5] was > 100 µM each time.
`CCOC1=C2N=C(C(CC)c3ccccc3F)N=C2C(=O)c2ccccc21` (stereo unspecified): the TGI in assay [6], in assay [4] and in assay [5] was > 100 µM each time.
As for `O=C1[C@@H]2C(c3ccc(Br)cc3)=NO[C@@H]2C(=O)N1c1ccc(Cc2ccc(N3C(=O)[C@H]4C(c5ccc(Br)cc5)=NO[C@H]4C3=O)cc2)cc1`, the GI50 in assay [1], in assay [2], in assay [3] and in assay [5] was > 40 µM in each case. In addition, the TGI in assay [1], in assay [2], in assay [3], in assay [6], in assay [4] and in assay [5] was > 40 µM each time.
Take `N#CC(NNC(=O)Cc1ccccc1)c1cccc(O)c1` (stereo unspecified): the TGI in assay [1], in assay [2], in assay [3] and in assay [4] was > 100 µM in each case.
